Test results: publication PMC11053914 (Viruses, 2024)
Peptide text beside a SMILES is read from it. * marks the point of attachment. Cbz = O=C(OCc1ccccc1)*

What was measured:
[1] = test system: A3G (Vif-mediated degradation); experiment: A3G level in the presence of Vif by Western blotting in HEK293T cells; assay type: cell-based, human; conditions: proteasome inhibitor positive control; A3G without Vif = 100%, Vif alone 31%
[2] = test system: HIV-1 NL4-3 packaged with A3G; assay type: cell-based; conditions: peptides at 25, 50 or 100 μM; DMSO group set to 100%; TZM-bl read-out
CEM cells [3] = experiment: Growth of infected CEM cells, trypan blue staining; assay type: cell-based; conditions: infected cells with 50 μM peptide, trypan blue staining every other day
CEM-SS cells [4] = experiment: Cytotoxicity assay (CellTiter-Glo) in CEM-SS cells; assay type: cell-based; conditions: 2-fold dilutions from 100 μM, 48 h, DMSO group = 100%
CEM cells [5] = experiment: Cytotoxicity assay (CellTiter-Glo) in CEM cells; assay type: cell-based; conditions: 2-fold dilutions from 100 μM, 48 h, DMSO group = 100%
CEM-SS cells [6] = experiment: Growth of infected CEM-SS cells, trypan blue staining; assay type: cell-based; conditions: infected cells with 50 μM peptide, trypan blue staining every other day
[7] = target: wild-type (WT) Vif displayed on yeast cells (HIV-1) (UniProt P69723); experiment: flow cytometry on cells
Sequence of UniProt P69723 (P69723 whole entry): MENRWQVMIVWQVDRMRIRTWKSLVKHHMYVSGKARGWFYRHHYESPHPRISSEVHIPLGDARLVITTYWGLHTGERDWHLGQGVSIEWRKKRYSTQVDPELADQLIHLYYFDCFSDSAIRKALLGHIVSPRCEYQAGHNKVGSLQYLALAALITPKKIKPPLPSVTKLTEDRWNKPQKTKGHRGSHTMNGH

`CC(C)C[C@@H](C=O)NC(=O)[C@H](CC(C)C)NC(=O)[C@H](CC(C)C)NC(=O)OCc1ccccc1` [MG132] (Cbz-Leu-Leu-Leu-aldehyde) was tested, and the “A3G level in the presence of Vif” value [1] was 73%.

In the case of `CC[C@H](C)[C@H](NC(=O)[C@H](CCSC)NC(=O)[C@@H](NC(=O)[C@H](CCC(=O)O)NC(C)=O)C(C)C)C(=O)N[C@H](C(=O)N[C@@H](Cc1c[nH]c2ccccc12)C(=O)N[C@@H](CCC(=O)O)C(=O)N[C@H](C(=O)N[C@@H](CC(=O)O)C(=O)N[C@@H](CCCNC(=N)N)C(=O)N[C@@H](CCSC)C(=O)N[C@@H](CCCNC(=N)N)C(=O)N[C@H](C(=O)N[C@H](C(=O)N[C@H](C(N)=O)[C@@H](C)O)[C@@H](C)O)[C@@H](C)CC)C(C)C)C(C)C` [VMP-6] (Ac-EVMIVWEVDRMRITT-NH2), the “effect on infectivity of the A3G-containing viruses” value (“effect on infectivity” for short) [2] is reported as “did not affect the viral infectivity”.

In the case of `CC[C@H](C)[C@H](NC(=O)[C@H](C)NC(=O)[C@H](CC(C)C)NC(=O)CNC(C)=O)C(=O)N[C@H](C(=O)N[C@H](C(=O)N[C@@H](Cc1ccc(O)cc1)C(=O)N[C@@H](Cc1c[nH]c2ccccc12)C(=O)NCC(=O)N[C@@H](CC(C)C)C(=O)N[C@@H](Cc1c[nH]cn1)C(=O)N[C@H](C(=O)NCC(=O)N[C@@H](CCC(=O)O)C(=O)N[C@@H](CCCNC(=N)N)C(=O)NCC(N)=O)[C@@H](C)O)[C@@H](C)O)[C@@H](C)O` [VMP-63], the “growth of CEM cells” value (CEM cells [3]) is reported as “not affected”, the “cytotoxicity on CEM-SS cells” value (CEM-SS cells [4]) is reported as “almost no cytotoxicity” and the “cytotoxicity on CEM cells” value (CEM cells [5]) is reported as “almost no cytotoxicity”. The “growth of CEM-SS cells” value (CEM-SS cells [6]) was “not affected”.

In the case of `CC(=O)N[C@@H](Cc1c[nH]c2ccccc12)C(=O)NCC(=O)N[C@@H](CC(C)C)C(=O)N[C@@H](Cc1c[nH]cn1)C(=O)N[C@H](C(=O)NCC(=O)N[C@@H](CCC(=O)O)C(=O)N[C@@H](CCCNC(=N)N)C(=O)NCC(N)=O)[C@@H](C)O` [VMP-70] (Ac-WGLHTGERG-NH2), the “effect on infectivity” value [2] is reported as “did not affect the viral infectivity”.

`CC[C@H](C)[C@H](NC(=O)[C@H](C)NC(=O)[C@H](CO)NC(=O)[C@H](CC(N)=O)NC(=O)[C@H](CO)NC(=O)[C@H](Cc1ccccc1)NC(=O)[C@H](CS)NC(=O)[C@H](CC(=O)O)NC(=O)[C@H](Cc1ccccc1)NC(=O)[C@H](Cc1ccc(O)cc1)NC(=O)[C@H](Cc1ccc(O)cc1)NC(=O)[C@H](CC(C)C)NC(=O)[C@H](CCCNC(=N)N)NC(C)=O)C(N)=O` [VMP-108] was tested, and the “growth of CEM cells” value (CEM cells [3]) was “not affected”, the “cytotoxicity on CEM-SS cells” value (CEM-SS cells [4]) was “almost no cytotoxicity” and the “cytotoxicity on CEM cells” value (CEM cells [5]) was “almost no cytotoxicity”. For the same compound, the “growth of CEM-SS cells” value (CEM-SS cells [6]) was “not affected”.

For `CC(=O)N[C@@H](Cc1ccc(O)cc1)C(=O)N[C@@H](Cc1ccccc1)C(=O)N[C@@H](CC(=O)O)C(=O)N[C@@H](CS)C(=O)N[C@@H](Cc1ccccc1)C(=O)N[C@@H](CO)C(=O)N[C@@H](CC(N)=O)C(=O)N[C@@H](CO)C(=O)N[C@@H](C)C(=O)N[C@H](C(=O)N[C@@H](CCCNC(=N)N)C(=O)N[C@@H](CCCCN)C(=O)N[C@H](C(N)=O)C(C)C)[C@@H](C)O` [VMP-111] (Ac-YFDCFSNSATRKV-NH2), the “effect on infectivity” value [2] was “did not affect the viral infectivity”.

Compound “CBFβ protein, purified (from UniProt Q13951 1-182) (natural protein)” has an FITC-positive cells [7] of 0.076%.
